{"source": "paper PMC7072329", "about": "“Discovery of Kynurenines Containing Oligopeptides as Potent Opioid Receptor Agonists” (Biomolecules, 2020)", "key": {"CD-1 male mice": {"test_system": "CD-1 male mice", "assay": "tail flick test", "assay_type": "in vivo", "conditions": "i.c.v., 10 μg/10 μL, 15 to 120 min", "description": "In our experiments, we used CD-1 male mice (Harlan, Italy, 25–30 g) maintained in colony, housed in cages (7 mice per cage) under standard light/dark cycle (from 7:00 a.m. to 7:00 p.m.), temperature (21 ± 1 °C) and relative humidity (60% ± 10%) for at least 1 week. Food and water were available ad libitum. The Service for Biotechnology and Animal Welfare of the Istituto Superiore di Sanità and the Italian Ministry of Health authorized the experimental protocol according to Legislative Decree 26/14.\nDMSO was purchased from Merck (Rome, Italy). Peptides solutions were freshly prepared using saline containing 0.9% NaCl and DMSO in the ratio DMSO/saline 1:5 v/v every experimental day. […]\nThe tail flick latency was obtained using a commercial unit (Ugo Basile, Gemonio, Italy), consisting of an infrared radiant light source (100 W, 15 V bulb) focused onto a photocell utilizing an aluminum parabolic mirror. […] Radiant heat was focused 3–4 cm from the tip of the tail, and the latency (s) of the tail withdrawal to the thermal stimulus was recorded. […] The baseline latency was calculated as mean of three readings recorded before testing at intervals of 15 min and the time course of latency determined at 15, 30, 45, 60, 90, and 120 min after treatment. […]\nExperimental data were expressed as mean ± s.e.m. […]"}, "G-protein [1]": {"biological_target": "G-protein", "assay": "functional [35S]GTPγS binding, rat brain membrane homogenates", "assay_type": "biochemical", "description": "(§1) Rats and guinea pigs were decapitated, and their brains were quickly removed. The brains were used for membrane preparation following the procedure reported by Benyhe for binding and [^35S]GTPγS binding experiments, in agreement with the protocol of Zádor et al..\n(§2) Homogenization of brains was performed in 30 volumes (v/w) of ice-cold 50 mM Tris-HCl pH 7.4 buffer with a Teflon-glass Braun homogenizer at 1500 rpm. The centrifuge was settled at 18,000 rpm for 20 min at 4 °C, the resulting supernatant discarded, and the pellet taken up in the original volume of Tris-HCl buffer. Incubation of homogenate at 37 °C for 30 min was performed in a shaking water-bath. Five volumes of 50 mM Tris-HCl pH 7.4 buffer were used to suspend the final pellet at −80 °C. For the [^35S]GTPγS binding experiments, the brains were homogenized with a Dounce in 5 volumes (v/w) of ice-cold TEM (Tris-HCl, EGTA, MgCl2) at −80 °C. The protein content of the membrane preparation was determined by the method of Bradford, BSA being used as a standard.\n(§3) The functional [^35S]GTPγS binding experiments were performed as previously described. Briefly the membrane homogenates were incubated at 30 °C for 60 min in Tris-EGTA buffer (pH 7.4) composed of 50 mM Tris-HCl, 1 mM EGTA, 3 mM MgCl2, 100 mM NaCl, containing 20 MBq/0.05 cm^3 [^35S]GTPγS (0.05 nM) and increasing concentrations (10^−10 to 10^−5 M) of ligands. The experiments were performed in the presence of excess GDP (30 μM) in a final volume of 1 mL. Total binding was measured in the absence of test compounds, non-specific binding was determined in the presence of 10 μM unlabeled GTPγS. The reaction was terminated by rapid filtration under vacuum and washed three times with 5 mL ice-cold 50 mM Tris-HCl (pH 7.4) buffer through Whatman GF/B glass fibers. The radioactivity of the filters was detected in an UltimaGold^TM MV aqueous scintillation cocktail with a Packard Tricarb 2300TR liquid scintillation counter.\n(§4) Experimental data are presented as means ± S.E.M. Sigmoid dose-response curves were fitted with GraphPad Prism 5.0 (GraphPad Prism Software Inc., San Diego, CA, USA). An unpaired t-test with two-tailed p value was performed to determine the significance level. In the competition binding assays, the ‘One site competition’ fitting was used to establish the equilibrium binding affinity (Ki value).\n[35S]GTPγS binding assay in rat brain membrane homogenates. Figure S2 represents the specific binding of [35S]GTPγS in percentage in presence of increasing concentrations (10-10 - 10^-5 M) of the indicated ligands. “Total” on the x-axis indicates the basal activity of the monitored G-protein, which is measured in the absence of the ligands and represents the total specific binding of [35S]GTPγS. The level of basal activity was defined as 100% and it is presented with a dotted line. Points represent means ± S.E.M. for at least three experiments […]\n(§5) Figure S3. The effect of novel oligopeptides on G-protein activity in [35S]GTPγS binding assays in the absence or presence of the selective MOR antagonist cyprodime (Cyp) and the selective DOR antagonist naltrindole (NTI) in rat brain membrane homogenates (Figure A) and the selective KOR antagonist norbinaltorphine (nor-BNI) in guinea pig brain membrane homogenates (Figure B). The level of basal activity was defined as 100% and it is presented with a dotted line. Points represent means ± S.E.M. for at least three experiments performed"}, "G-protein [2]": {"test_system": "G-protein", "assay": "functional [35S]GTPγS binding, guinea pig brain membrane homogenates", "assay_type": "biochemical", "conditions": "ligand alone", "description": "as §1, §2, §3, §4\nas §5, with “The level of basal activity was defined as 100% and it is presented with a dotted line. Points represent means ± S.E.M. for at least three experiments performed” left out"}}, "note": "Values joined by “and” are separate entries in the source; they are usually repeats but may differ in a detail not shown here. Identical values can stand only once. Where a SMILES comes first, the peptide text is derived from it. [ ]: non-standard residue; d: D form. Kyn = Nc1ccccc1C(=O)C[C@H](N)C(=O)O", "data": [{"smiles": "C[C@@H](NC(=O)[C@@H](N)Cc1ccc(O)cc1)C(=O)NCC(=O)N[C@@H](Cc1ccccc1)C(=O)N[C@@H](CC(=O)c1ccccc1N)C(N)=O", "note": "[Peptide K6] (H-Y[dA]GF[Kyn]-NH2)", "values": [{"measurement": "effect on time of response to thermal nociceptive stimuli (tail flick)", "setting": "CD-1 male mice", "value": "greatly increase the time of response to thermal nociceptive stimuli"}, {"measurement": "Potency Log EC50 ± S.E.M.", "setting": "G-protein [1]; dose-response curves", "value": "−5.984 ± 0.054"}, {"measurement": "Maximal Stimulation (Efficacy) Emax ± S.E.M.", "setting": "G-protein [1]; dose-response curves, basal = 100%", "value": "209.7 ± 3.4", "unit": "%"}, {"measurement": "Emax + S.E.M., Ligand", "setting": "G-protein [1]; ligand alone, bar graphs Figure S3", "value": "211% and 211.7 ± 3.1%"}, {"measurement": "Emax + S.E.M., Ligand", "setting": "G-protein [2]", "value": "139.8 ± 2.3", "unit": "%"}]}]}
